Experiments:
Format in all cases: functional
[1] = species on record: Mus musculus; assay: Effective dose required for anticonvulsive activity in pentylenetetrazole (PTZ) test; Not effective
[2] = species on record: Mus musculus; assay: Anticonvulsive activity in picrotoxin (PCR) induced seizure test
[3] = system: Mus musculus; assay: Protection from picrotoxin-induced (0.27 mmol/kg) convulsion over 16 hr at 100 mg/kg in 4 mice
[4] = system: Mus musculus; assay: Protection from picrotoxin-induced (0.27 mmol/kg) convulsion over 3 hr at 100 mg/kg in 4 mice
[5] = species on record: Mus musculus; assay: Effective dose required for anticonvulsive activity in bicuculline (BIC) test
[6] = species on record: Mus musculus; assay: Effective dose required for anticonvulsive activity in maximal electroshock seizure (MES) test; Not effective
[7] = system: Mus musculus; assay: Protection from picrotoxin-induced (0.27 mmol/kg) convulsion over 6 hr at 100 mg/kg in 4 mice
[8] = system: Mus musculus; assay: Protection from picrotoxin-induced (0.27 mmol/kg) convulsion over 9 hr at 100 mg/kg in 4 mice
[9] = species on record: Mus musculus; assay: Effective dose required for anticonvulsive activity in maximal electroshock seizure (MES) test
[10] = species on record: Mus musculus; assay: Effective dose required for anticonvulsive activity in pentylenetetrazole (PTZ) test
[11] = species on record: Mus musculus; assay: Effective dose required for anticonvulsive activity in bicuculline (BIC) test; Not effective
[12] = system: Mus musculus; assay: Effective dose required for anticonvulsive activity in pentylenetetrazole (PTZ) test at >0.1 mmol/kg
[13] = species on record: Mus musculus; assay: Anticonvulsive activity in picrotoxin (PCR) induced seizure test (ineffective)

Row | Structure (SMILES) | ED50 [1] [µmol/kg] | ED50 [2] [µmol/kg] | No. of mice protected [3] | No. of mice protected [4] | ED50 [5] [µmol/kg] | ED50 [6] [µmol/kg] | No. of mice protected [7] | No. of mice protected [8] | ED50 [9] [µmol/kg] | ED50 [10] [µmol/kg] | ED50 [11] [µmol/kg] | ED50 [12] [µmol/kg] | ED50 [13] [µmol/kg]
1 | C=CC(N)CCC(=O)O (stereo not drawn) [VIGABATRIN] | > 1000 | 210 | 0 | 4 | 220 | > 1000 | 4 | 3 | – | – | – | – | –
2 | C=CC(CCC(=O)OC)NC(=O)C1CCCNC1 (stereo not drawn) | – | 260 | – | – | 310 | – | – | – | > 540 | 410 | – | – | –
3 | C=CC(CCC(=O)OC)NC(=O)C1CCNCC1 (stereo not drawn) | – | 390 | – | – | 460 | – | – | – | > 540 | > 540 | – | – | –
4 | C=CC(N)CCC(=O)N1CCC(C(=O)OC)CC1 (stereo not drawn) | – | 260 | 0 | 2 | 150 | – | 2 | 0 | > 540 | 320 | – | – | –
5 | O=C(O)C1CCCNC1 (stereo not drawn) [NIPECOTIC ACID] | – | – | – | – | – | > 1000 | – | – | – | – | > 1000 | – | –
6 | C=CC(N)CCC(=O)N1CCCC(C(=O)OC)C1 (stereo not drawn) | – | 100 | 0 | 2 | 140 | – | 0 | 0 | > 540 | 150 | – | – | –
7 | C=CC(N)CCC(=O)N1CCCC1=O (stereo not drawn) | – | 260 | – | – | 200 | – | – | – | > 540 | > 540 | – | – | –
8 | O=C(O)C1CCNCC1 [ISONIPECOTIC ACID] | – | – | – | – | – | – | – | – | – | – | > 1000 | – | –
9 | O=C1CCCN1 [2-PYRROLIDONE] | – | – | – | – | – | > 1000 | – | – | – | – | > 1000 | 540 | > 1000
